The record followed here is PMC8745223, “Novel 1,3,5-Triazinyl Aminobenzenesulfonamides Incorporating Aminoalcohol, Aminochalcone and Aminostilbene Structural Motifs as Potent Anti-VRE Agents, and Carbonic Anhydrases I, II, VII, IX, and XII Inhibitors” (International Journal of Molecular Sciences, 2021).

Converted amounts (≈) assume the structure as drawn.

Experiment [1] relates to T1, Enterococcus faecalis VRE 725 B.
T1 construct: VRE 725B (vanA clinical isolate)
In words: organism not typed. Details: broth microdilution MIC in BHI, Alamar Blue read-out, 37 °C. The note with it: 24 h. Here is the method: The inhibition activity against enterococci was evaluated by the microtitration broth method according to the Clinical and Laboratory Standards Institute with some modifications. The compounds were dissolved in DMSO and serially diluted in Brain Hearth Infusion (BHI) to reach concentrations 256–2 µg/mL. […] The experiment was repeated at least three times. All the investigated compounds were tested on their anti-staphylococcal activity against three clinical isolates of methicillin-resistant Staphylococcus aureus (MRSA) and S. aureus ATCC 29213 as the reference and quality control strain. […] All the compounds were tested against Enterococcus faecalis ATCC 29212 as the reference strain and three isolates from American crows of vanA-carrying vancomycin-resistant E. faecalis (VRE), and the activities, expressed as minimum inhibitory concentrations (MICs), are listed in Table 3.

The subject of experiment [2] is T2, Enterococcus faecalis VRE 368.
T2 construct: VRE 368 (vanA clinical isolate)
As to the kind of experiment: organism not typed. Further details: broth microdilution MIC in BHI, Alamar Blue read-out, 37 °C. The note with it: 24 h. Here is the method: (§1) The inhibition activity against enterococci was evaluated by the microtitration broth method according to the Clinical and Laboratory Standards Institute with some modifications. The compounds were dissolved in DMSO and serially diluted in Brain Hearth Infusion (BHI) to reach concentrations 256–2 µg/mL. […] The experiment was repeated at least three times. All the investigated compounds were tested on their anti-staphylococcal activity against three clinical isolates of methicillin-resistant Staphylococcus aureus (MRSA) and S. aureus ATCC 29213 as the reference and quality control strain.

Experiment [3] has as its system T3, Enterococcus faecalis VRE 342 B.
T3 construct: VRE 342 B (vanA clinical isolate)
As to the kind of experiment: organism not typed. Details: broth microdilution MIC in BHI, Alamar Blue read-out, 37 °C. The note with it: 24 h. The procedure: as §1

The test system of experiment [4] is T4, E. faecalis ATCC 29212 (EF).
T4 construct: ATCC 29212
As to the kind of experiment: microbe, parasite or virus in culture. Details: broth microdilution MIC in BHI, Alamar Blue read-out, 37 °C. The note with it: Enterococcus faecalis, ATCC29212, 24 h. The procedure: as §1

Experiment [5] has as its target T5, hCA IX (Homo sapiens, UniProt Q16790).
T5 construct: gene CA9; recombinant
In words: stopped-flow CO2 hydration assay. In kind it is biochemical. The procedure, abridged:
(§2)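 Recombinant human carbonic anhydrase CO2 hydration was followed by stopped-flow for 10–100 s with 0.2 mM phenol red (557 nm), 20 mM Hepes pH 7.5, 20 mM Na2SO4 and 1.7–17 mM CO2. Enzyme and inhibitor (diluted to 0.005 nM in buffer) were preincubated 15 min at room temperature. Initial rates used at least six traces, with uncatalysed rates subtracted. Ki was fitted by non-linear least squares with Cheng–Prusoff equation, averaged over three or more determinations.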

Experiment [6] addresses T6, hCA II (Homo sapiens, UniProt P00918).
T6 construct: gene CA2; recombinant
In words: stopped-flow CO2 hydration assay. In kind it is biochemical. The essentials: as §2

Experiment [7] addresses T7, hCA I (Homo sapiens, UniProt P00915).
T7 construct: gene CA1; recombinant
In words: stopped-flow CO2 hydration assay. Type of experiment: biochemical. The essentials:
as §2

Experiment [8] has as its target T8, hCA XII (Homo sapiens, UniProt O43570).
T8 construct: gene CA12; recombinant
As to the kind of experiment: stopped-flow CO2 hydration assay. Type of experiment: biochemical. The essentials: as §2

T7 sequence (P00915 2-261): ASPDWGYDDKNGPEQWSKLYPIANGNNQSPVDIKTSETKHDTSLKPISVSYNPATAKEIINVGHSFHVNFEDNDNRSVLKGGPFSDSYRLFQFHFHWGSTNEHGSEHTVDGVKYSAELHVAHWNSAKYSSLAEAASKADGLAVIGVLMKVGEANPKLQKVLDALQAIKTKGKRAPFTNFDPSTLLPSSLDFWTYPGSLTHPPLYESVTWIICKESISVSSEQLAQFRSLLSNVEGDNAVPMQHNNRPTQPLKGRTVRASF
T8 sequence (O43570 25-354): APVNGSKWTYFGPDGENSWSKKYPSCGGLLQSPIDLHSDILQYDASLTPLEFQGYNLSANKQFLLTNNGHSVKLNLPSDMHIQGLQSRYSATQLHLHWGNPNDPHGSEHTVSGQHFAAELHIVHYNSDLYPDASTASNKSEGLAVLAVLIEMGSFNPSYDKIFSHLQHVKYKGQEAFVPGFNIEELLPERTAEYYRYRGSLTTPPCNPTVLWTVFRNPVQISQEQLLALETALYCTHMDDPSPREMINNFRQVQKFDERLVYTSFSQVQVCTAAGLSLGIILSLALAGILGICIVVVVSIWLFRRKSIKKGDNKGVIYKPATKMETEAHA

For the molecule `NS(=O)(=O)c1ccc(CNc2nc(Cl)nc(NCc3ccc(S(N)(=O)=O)cc3)n2)cc1` [7 ^a], the MIC in experiment [1] is 131 µM (≈ 63.4 µg/mL); in experiment [2], 33 µM (≈ 16 µg/mL); in experiment [3] it was 66 µM (≈ 31.9 µg/mL); in experiment [4] it was 16.5 µM (≈ 7.98 µg/mL).

`CC1(C)S[C@@H]2[C@H](NC(=O)[C@H](N)c3ccccc3)C(=O)N2[C@H]1C(=O)O` [ampicillin]: the “MIC [µM] / VRE 725 B” value in experiment [1] (inhibitor) worked out at 5.72 µM (≈ 2 µg/mL).

As a reminder, the Ki is the equilibrium dissociation constant of an inhibitor or competing ligand from its target. For `NS(=O)(=O)c1ccc(Nc2nc(NCCCO)nc(Nc3ccc(/C=C/c4cccc(O)c4)cc3)n2)cc1` [compound 4, (E)-4-({4-[(3-Hydroxypropyl)amino]-6-{[4-(3-hydroxystyryl)phenyl]amino}-1,3,5-triazin-2-yl}amino)benzenesulfonamide], the Ki in experiment [5] is 27.5 nM; in experiment [6], 3640 nM; in experiment [7], 7520 nM; in experiment [8] it was 65.8 nM.

Regarding `NS(=O)(=O)c1ccc(CNc2nc(NCCCO)nc(Nc3ccc(/C=C/c4cccc(O)c4)cc3)n2)cc1` [compound 17, 17], the MIC in experiment [1] is more than 467 µM; in experiment [2] it was 467 µM (≈ 256 µg/mL); in experiment [3] it was more than 467 µM; in experiment [4], more than 467 µM. The Ki in experiment [5] was 22.2 nM; in experiment [6], 46.8 nM; in experiment [7], 358 nM; in experiment [8] it was 493 nM.

As to `NS(=O)(=O)c1ccc(CCNc2nc(NCCCO)nc(Nc3ccc(/C=C/c4ccccc4)cc3)n2)cc1` [compound 30, (E)-4-[2-({4-[(3-Hydroxypropyl)amino]-6-[(4-styrylphenyl)amino]-1,3,5-triazin-2-yl}amino)ethyl]benzenesulfonamide], the MIC in experiment [1], in experiment [2], in experiment [3] and in experiment [4] was more than 469 µM each time. For the same molecule, the inhibitory constant (Ki) is 12.1 nM in experiment [5], 5130 nM in experiment [6], 5700 nM in experiment [7] and 7.6 nM in experiment [8].

Consider `NS(=O)(=O)c1ccc(CCNc2nc(NCC(O)CO)nc(Nc3ccc(/C=C/c4ccccc4)cc3)n2)cc1` (stereo not drawn) [compound 31, (E)-4-{2-[(4-[(2,3-Dihydroxypropyl)amino]-6-[(4-styrylphenyl)amino]-1,3,5-triazin-2-yl)amino]ethyl}benzenesulfonamide], for which the MIC in experiment [1], in experiment [2], in experiment [3] and in experiment [4] was more than 455 µM throughout. The inhibition constant Ki in experiment [5] is 248 nM; in experiment [6] it was 335 nM; in experiment [7] it was 36.9 nM; in experiment [8], 4.4 nM.

Turning to `NS(=O)(=O)c1ccc(CCNc2nc(Nc3ccc(O)cc3)nc(Nc3ccc(/C=C/c4ccccc4)cc3)n2)cc1` [compound 32, (E)-4-{2-[(4-[(4-Hydroxyphenyl)amino]-6-[(4-styrylphenyl)amino]-1,3,5-triazin-2-yl)amino]ethyl}benzenesulfonamide], the MIC turned out to be 55.2 µM (≈ 32 µg/mL) in experiment [1], 27.6 µM (≈ 16 µg/mL) in experiment [2], 27.6 µM (≈ 16 µg/mL) in experiment [3] and 13.8 µM (≈ 8 µg/mL) in experiment [4]. Besides, the Ki was 2470 nM in experiment [5], 7490 nM in experiment [6], 90.6 nM in experiment [7] and 5.9 nM in experiment [8].

`NS(=O)(=O)c1ccc(CCNc2nc(NCc3ccc(S(N)(=O)=O)cc3)nc(Nc3ccc(/C=C/c4ccccc4)cc3)n2)cc1` [compound 33]: the MIC in experiment [1] is 194 µM (≈ 127 µg/mL); in experiment [2], 389 µM (≈ 255 µg/mL); in experiment [3], 194 µM (≈ 127 µg/mL); in experiment [4], 97.4 µM (≈ 64 µg/mL). In addition, the Ki in experiment [5] was 1970 nM; in experiment [6], 57.9 nM; in experiment [7], 48 nM; in experiment [8], 6.2 nM.

As to `NS(=O)(=O)c1ccc(CCNc2nc(NCC(O)CO)nc(Nc3ccc(/C=C/c4ccccc4O)cc3)n2)cc1` (stereo not drawn) [compound 34, (E)-4-{2-[(4-[(2,3-Dihydroxypropyl)amino]-6-{[4-(2-hydroxystyryl)phenyl]amino}-1,3,5-triazin-2-yl)amino]ethyl}benzenesulfonamide], the MIC in experiment [1], in experiment [2], in experiment [3] and in experiment [4] was more than 443 µM each time. The Ki was 2710 nM in experiment [5], 5630 nM in experiment [6], 1670 nM in experiment [7] and 8.5 nM in experiment [8].

Take `NS(=O)(=O)c1ccc(CCNc2nc(Nc3ccc(O)cc3)nc(Nc3ccc(/C=C/c4ccccc4O)cc3)n2)cc1` [compound 35, 35]: the MIC in experiment [1], in experiment [2], in experiment [3] and in experiment [4] was more than 429 µM throughout. Further, the inhibitory constant (Ki) in experiment [5] was determined as 238 nM; in experiment [6], 5470 nM; in experiment [7] it was 3940 nM; in experiment [8], 37.1 nM.

With `NS(=O)(=O)c1ccc(CCNc2nc(NCc3ccc(S(N)(=O)=O)cc3)nc(Nc3ccc(/C=C/c4ccccc4O)cc3)n2)cc1` [compound 36, (E)-4-{2-[(4-{[4-(2-Hydroxystyryl)phenyl]amino}-6-[(4-sulfamoylbenzyl)amino]-1,3,5-triazin-2-yl)amino]ethyl}benzenesulfonamide], the MIC in experiment [1], in experiment [2], in experiment [3] and in experiment [4] was more than 380 µM throughout. Also, the Ki in experiment [5] was 2720 nM; in experiment [6], 82 nM; in experiment [7] it was 448 nM; in experiment [8], 8.3 nM.

With `NS(=O)(=O)c1ccc(CCNc2nc(NCCCO)nc(Nc3ccc(/C=C/c4cccc(O)c4)cc3)n2)cc1` [compound 37, 37], the MIC in experiment [1], in experiment [2], in experiment [3] and in experiment [4] was more than 455 µM in each case. The inhibition constant (Ki) in experiment [5] was 26.4 nM; in experiment [6] it was 73.5 nM; in experiment [7], 675 nM; in experiment [8], 601 nM.

`NS(=O)(=O)c1ccc(CCNc2nc(NCC(O)CO)nc(Nc3ccc(/C=C/c4cccc(O)c4)cc3)n2)cc1` (stereo not drawn) [compound 38, (E)-4-{2-[(4-[(2,3-Dihydroxypropyl)amino]-6-{[4-(3-hydroxystyryl)phenyl]amino}-1,3,5-triazin-2-yl)amino]ethyl}benzenesulfonamide]: the MIC in experiment [1], in experiment [2], in experiment [3] and in experiment [4] was more than 443 µM in each case. For the same molecule, the Ki in experiment [5] came to 17.3 nM; in experiment [6], 4440 nM; in experiment [7], 6730 nM; in experiment [8], 84.5 nM.

For the molecule `NS(=O)(=O)c1ccc(CCNc2nc(Nc3ccc(O)cc3)nc(Nc3ccc(/C=C/c4cccc(O)c4)cc3)n2)cc1` [compound 39, 39], the MIC in experiment [1], in experiment [2], in experiment [3] and in experiment [4] was more than 429 µM throughout. The Ki in experiment [5] was 876 nM; in experiment [6], 154 nM; in experiment [7] it was 742 nM; in experiment [8], 68.5 nM.

Turning to `NS(=O)(=O)c1ccc(CCNc2nc(NCc3ccc(S(N)(=O)=O)cc3)nc(Nc3ccc(/C=C/c4cccc(O)c4)cc3)n2)cc1` [compound 40, (E)-4-{2-[(4-{[4-(3-Hydroxystyryl)phenyl]amino}-6-[(4-sulfamoylbenzyl)amino]-1,3,5-triazin-2-yl)amino]ethyl}benzenesulfonamide], the MIC in experiment [1] is 190 µM (≈ 128 µg/mL); in experiment [2], 380 µM (≈ 256 µg/mL); in experiment [3], 190 µM (≈ 128 µg/mL); in experiment [4], 190 µM (≈ 128 µg/mL). The Ki was found to be 20.3 nM in experiment [5], 18.9 nM in experiment [6], 48.8 nM in experiment [7] and 60.5 nM in experiment [8].

As to `CN[C@H](CC(C)C)C(=O)N[C@H]1C(=O)N[C@@H](CC(N)=O)C(=O)N[C@H]2C(=O)N[C@H]3C(=O)N[C@H](C(=O)N[C@H](C(=O)O)c4cc(O)cc(O)c4-c4cc3ccc4O)[C@H](O)c3ccc(c(Cl)c3)Oc3cc2cc(c3O[C@@H]2O[C@H](CO)[C@@H](O)[C@H](O)[C@H]2O[C@H]2C[C@](C)(N)[C@H](O)[C@H](C)O2)Oc2ccc(cc2Cl)[C@H]1O` [vancomycin], the figures for the MIC in experiment [1], in experiment [2] and in experiment [3] were 706 µM (≈ 1020 µg/mL), 353 µM (≈ 512 µg/mL) and 353 µM (≈ 512 µg/mL), respectively.
